The values that follow come from ChEMBL document CHEMBL4265994, “Design, synthesis, cholinesterase inhibition and molecular modelling study of novel tacrine hybrids with carbohydrate derivatives” (Bioorg Med Chem, 2018).

In one experiment the target is T1, Acetylcholinesterase (Mus musculus, UniProt P21836).
T1 sequence (P21836 whole entry): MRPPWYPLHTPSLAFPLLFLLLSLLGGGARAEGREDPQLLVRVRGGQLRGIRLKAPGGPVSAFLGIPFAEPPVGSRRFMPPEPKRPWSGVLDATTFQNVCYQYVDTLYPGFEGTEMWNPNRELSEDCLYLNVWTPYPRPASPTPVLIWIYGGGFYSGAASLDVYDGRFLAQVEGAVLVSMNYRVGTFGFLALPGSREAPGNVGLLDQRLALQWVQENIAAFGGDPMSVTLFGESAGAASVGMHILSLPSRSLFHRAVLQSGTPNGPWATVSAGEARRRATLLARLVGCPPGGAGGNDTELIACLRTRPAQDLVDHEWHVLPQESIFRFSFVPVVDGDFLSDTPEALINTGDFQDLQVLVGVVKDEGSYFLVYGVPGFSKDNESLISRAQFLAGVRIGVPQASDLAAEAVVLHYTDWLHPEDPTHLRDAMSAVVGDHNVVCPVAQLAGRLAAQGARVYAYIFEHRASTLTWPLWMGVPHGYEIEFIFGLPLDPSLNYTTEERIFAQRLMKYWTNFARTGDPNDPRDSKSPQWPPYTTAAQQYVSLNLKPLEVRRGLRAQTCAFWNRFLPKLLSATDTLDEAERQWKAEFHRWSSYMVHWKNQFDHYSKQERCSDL
In words: Inhibition of AChE in Swiss Webster mouse cerebral homogenate using acetylthiocholine iodide as substrate preincubated for 10 mins followed substrate addition measured after 10 mins by Ellman's method.

Another experiment deals with Cholinesterase (Mus musculus, UniProt Q03311). In words: Inhibition of BuChE in Swiss Webster mouse whole blood serum using butyrylthiocholine iodide as substrate preincubated for 10 mins followed substrate addition measured after 10 mins by Ellman's method. On the technique in general: DTNB colorimetry detects thiols as they appear.
Cholinesterase, sequence (Q03311 whole entry): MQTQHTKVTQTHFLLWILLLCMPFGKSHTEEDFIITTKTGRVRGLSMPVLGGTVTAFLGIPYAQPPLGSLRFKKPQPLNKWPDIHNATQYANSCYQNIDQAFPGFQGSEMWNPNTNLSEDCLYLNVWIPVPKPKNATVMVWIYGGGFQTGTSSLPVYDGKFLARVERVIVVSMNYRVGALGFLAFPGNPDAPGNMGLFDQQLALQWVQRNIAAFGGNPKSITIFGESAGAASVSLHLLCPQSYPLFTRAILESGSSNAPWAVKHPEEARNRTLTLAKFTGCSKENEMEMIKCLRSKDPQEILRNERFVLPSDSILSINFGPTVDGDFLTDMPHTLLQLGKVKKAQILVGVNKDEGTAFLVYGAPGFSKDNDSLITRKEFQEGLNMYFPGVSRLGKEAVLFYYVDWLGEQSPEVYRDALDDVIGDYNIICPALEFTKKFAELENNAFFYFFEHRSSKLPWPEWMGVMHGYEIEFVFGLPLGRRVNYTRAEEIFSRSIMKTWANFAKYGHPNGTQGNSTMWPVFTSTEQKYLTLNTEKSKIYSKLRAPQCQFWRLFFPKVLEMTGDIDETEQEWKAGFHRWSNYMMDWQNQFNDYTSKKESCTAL

As to `c1ccc2c(NCCCCCCCNc3c4c(nc5ccccc35)CCCC4)c3c(nc2c1)CCCC3`, the IC50 – broadly, the concentration at which inhibition is half-maximal – on Acetylcholinesterase worked out at 1.9 nM; against Cholinesterase, 9.1 nM.

As for `CO[C@@H]1O[C@H](CNCCCCCCCCCNc2c3c(nc4ccccc24)CCCC3)[C@H]2OC(C)(C)O[C@@H]12`, the values for the half-maximal inhibitory concentration (IC50) on Acetylcholinesterase and on Cholinesterase were 65.5 nM and 64.3 nM, respectively.

Consider `CC1(C)O[C@H]2O[C@H](CNCCCCCCCNc3c4c(nc5ccccc35)CCCC4)[C@H](O)[C@H]2O1`, for which the IC50 was 84.4 nM against Acetylcholinesterase and 11.7 nM against Cholinesterase.

Regarding `CC1(C)O[C@H]2O[C@H](CNCCCCCCCCCCNc3c4c(nc5ccccc35)CCCC4)[C@H](O)[C@H]2O1`, the 50% inhibitory concentration (IC50) on Acetylcholinesterase was 2.2 nM; against Cholinesterase, 4.93 nM.

With `CC1(C)O[C@H]2[C@@H](O1)[C@@H](CNCCCCCCCCCNc1c3c(nc4ccccc14)CCCC3)O[C@@H]1OC(C)(C)O[C@@H]12`, the IC50 against Acetylcholinesterase worked out at 7.6 nM; at Cholinesterase, 26.2 nM.

As for `CC1(C)O[C@H]2O[C@H](CNCCCCCCCCNc3c4c(nc5ccccc35)CCCC4)[C@H](O)[C@H]2O1`, the IC50 on Acetylcholinesterase is 5.1 nM; on Cholinesterase it was 25.8 nM.

Turning to `CC1(C)O[C@H]2O[C@H](CNCCCCCCNc3c4c(nc5ccccc35)CCCC4)[C@H](O)[C@H]2O1`, the IC50 on Acetylcholinesterase came out at 8.7 nM; on Cholinesterase it was 27.6 nM.

Consider `CC1(C)O[C@H]2[C@@H](O1)[C@@H](CNCCCCCCCCNc1c3c(nc4ccccc14)CCCC3)O[C@@H]1OC(C)(C)O[C@@H]12`, for which the 50% inhibitory concentration (IC50) stood at 4.8 nM on Acetylcholinesterase and 36.7 nM against Cholinesterase.

As for `CO[C@@H]1O[C@H](CNCCCCCCCCNc2c3c(nc4ccccc24)CCCC3)[C@H]2OC(C)(C)O[C@@H]12`, the values for the IC50 at Acetylcholinesterase and at Cholinesterase were 89.9 nM and 36.9 nM, respectively.

Turning to `CC1(C)O[C@H]2O[C@H](CNCCCCCCCCCNc3c4c(nc5ccccc35)CCCC4)[C@H](O)[C@H]2O1`, the IC50 came to 10.2 nM against Acetylcholinesterase and 30.8 nM against Cholinesterase.
